According to USRE48097E1, “Cephem compounds, their production and use” (priority 2015, dated 2020):
In brackets after ≈: the same amount, converted by molar mass. Read-outs that look alike come from different tables or passages of the source.

What was measured:
[1] = system: S. pneumoniae 2492; assay: MIC against S. pneumoniae 2492; type: cell-based; details: Table 2, S. pneumoniae 2492, Pen R
Excerpt: (§1) Without limitation, the present cephem compounds alone, or in combination with one or more β-lactamase inhibitors, may provide improved antibacterial efficacy, particularly in antibiotic-resistant bacterial strains. It is believed that the present compounds may be structurally different from known compounds and, as a result, may be more basic in nature. It is an advantage that the present compounds may extend the spectrum of effective bacterial compounds, particularly against previously-resistant bacteria (e.g. ESKAPE organisms), and/or gram negative bacteria, without significant side effects. In a preferred embodiment, the present cephem compound may comprise reference compound ceftazidime, which may be used alone, or in combination with one or more β-lactamase inhibitors, such as NXL-104. As shown, the foregoing composition was tested for minimum inhibitory concentration (MIC, μg/mL) against bacteria listed in Tables 2-3.

[2] = system: P. aeruginosa 2573; assay: MIC against P. aeruginosa 2573; type: cell-based; details: Table 2, P. aeruginosa 2573, OXA-10 (Class D)
Excerpt: as §1

[3] = system: K. pneumoniae 4108; assay: MIC against K. pneumoniae 4108; type: cell-based; details: K. pneumoniae 4108, KPC-3, TEM-166, SHV-12, SHV-141
Method: (§2) As shown, the foregoing composition was tested for minimum inhibitory concentration (MIC, μg/mL) against bacteria listed in Tables 2-3.

[4] = system: E. coli 4098; assay: MIC against E. coli 4098; type: cell-based; details: Table 2, E. coli 4098, CTX-M-15, TEM-1
Excerpt: as §1

[5] = system: E. coli 102; assay: MIC against E. coli 102; type: cell-based; details: Table 2, E. coli 102, TEM-1
Excerpt: as §1

[6] = system: E. cloacae 2709; assay: MIC against E. cloacae 2709; type: cell-based; details: Table 3, E. cloacae 2709, KPC-3, VIM-1
Method: as §2

[7] = system: E. coli 2671; assay: MIC against E. coli 2671; type: cell-based; details: Table 2, E. coli 2671, VIM-19
Excerpt: as §1

[8] = system: K. pneumoniae 4104; assay: MIC against K. pneumoniae 4104; type: cell-based; details: K. pneumoniae 4104, KPC-3, TEM-1
Method: as §2

[9] = system: K. pneumoniae 2697; assay: MIC against K. pneumoniae 2697; type: cell-based; details: Table 2, K. pneumoniae 2697, IMP-4
Excerpt: as §1

[10] = system: M. morganii 2409; assay: MIC against M. morganii 2409; type: cell-based; details: Table 2, M. morganii 2409, High level cephase, β-Lactamase producing
Excerpt: as §1

[11] = system: S. aureus 3144; assay: MIC against S. aureus 3144; type: cell-based; details: Table 2, S. aureus 3144, MSSA
Excerpt: as §1

[12] = system: S. pneumoniae 2406; assay: MIC against S. pneumoniae 2406; type: cell-based; details: Table 2, S. pneumoniae 2406, Pen S
Excerpt: as §1

[13] = system: E. coli 4101; assay: MIC against E. coli 4101; type: cell-based; details: Table 2, E. coli 4101, CTX-M-14, TEM-1
Excerpt: as §1

[14] = system: E. cloacae 2705; assay: MIC against E. cloacae 2705; type: cell-based; details: Table 3, E. cloacae 2705, VIM-1, KPC-3type
Method: as §2

[15] = system: S. aureus3137; assay: MIC against S. aureus3137; type: cell-based, S. aureus; details: Table 2, S. aureus3137, MSSA
Excerpt: as §1

[16] = system: C. freundii 15; assay: MIC against C. freundii 15; type: cell-based; details: Table 2, C. freundii 15, Caz R, IMP S
Excerpt: as §1

[17] = system: K. pneumoniae 2712; assay: MIC against K. pneumoniae 2712; type: cell-based; details: Table 3, K. pneumoniae 2712, KPC-3, VIM-1
Method: as §2

[18] = system: K. pneumoniae 2689; assay: MIC against K. pneumoniae 2689; type: cell-based; details: K. pneumoniae 2689, KPC-2
Method: as §2

[19] = system: K. baumanii 4094; assay: MIC against K. baumanii 4094; type: cell-based; details: Table 2, K. baumanii 4094, OXA-51
Excerpt: as §1

[20] = system: K. pneumoniae 4105; assay: MIC against K. pneumoniae 4105; type: cell-based; details: K. pneumoniae 4105, KPC-3, TEM-1, SHV-11
Method: as §2

[21] = system: E. cloacae 2706; assay: MIC against E. cloacae 2706; type: cell-based; details: Table 3, E. cloacae 2706, VIM-1, KPC-3
Method: as §2

[22] = system: E. cloacae 2044; assay: MIC against E. cloacae 2044; type: cell-based; details: Table 2, E. cloacae 2044, Caz S, IMP S
Excerpt: as §1

[23] = system: E. cloacae596; assay: MIC against E. cloacae596; type: cell-based, E. cloacae; details: Table 2, E. cloacae596, Caz R, IMP S
Excerpt: as §1

[24] = Streptococcus pneumoniae, alone, read-out: MIC
[25] = Table 2, in combination with NXL-104
[26] = Table 3, in combination with NXL-104
[27] = Escherichia coli, alone, read-out: MIC
[28] = Enterobacter cloacae, alone, read-out: MIC
[29] = Klebsiella pneumoniae, alone, read-out: MIC
[30] = Staphylococcus aureus, alone, read-out: MIC

MIC [1, 24]: 8 µg/mL
MIC ([1]; in combination with NXL-104): 8.00 µg/mL
MIC ([2]; Pseudomonas aeruginosa, alone, read-out: MIC): 2 µg/mL
MIC ([2]; in combination with NXL-104): 4.00 µg/mL
MIC ([3]; Klebsiella pneumoniae, 4108, Table 2, alone, read-out: MIC): 4 µg/mL (≈ 5.64 µM)
MIC ([3]; Klebsiella pneumoniae, 4108, Table 3, alone, read-out: MIC): > 32 µg/mL
MIC [3, 25]: 1.00 µg/mL
MIC [3, 26]: 2 µg/mL
MIC [4, 27]: 1 µg/mL
MIC ([4]; in combination with NXL-104): 0.25 µg/mL
MIC [5, 27]: ≤ 0.06 µg/mL
MIC ([5]; in combination with NXL-104): ≤0.06 µg/mL
MIC [6, 28]: 16 µg/mL (≈ 22.6 µM)
MIC ([6]; in combination with NXL-104): 4 µg/mL
MIC [7, 27]: 4 µg/mL
MIC ([7]; in combination with NXL-104): 4.00 µg/mL
MIC ([8]; Klebsiella pneumoniae, 4104, Table 2, alone, read-out: MIC): 8 µg/mL (≈ 11.3 µM)
MIC ([8]; Klebsiella pneumoniae, 4104, Table 3, alone, read-out: MIC): 32 µg/mL (≈ 45.1 µM)
MIC [8, 25]: 2.00 µg/mL
MIC [8, 26]: 2 µg/mL
MIC [9, 29]: 4 µg/mL
MIC ([9]; in combination with NXL-104): 1.00 µg/mL
MIC ([10]; Morganella morganii, alone, read-out: MIC): 8 µg/mL
MIC ([10]; in combination with NXL-104): 1.00 µg/mL
MIC [11, 30]: 4 µg/mL
MIC ([11]; in combination with NXL-104): 4.00 µg/mL
MIC [12, 24]: ≤ 0.06 µg/mL
MIC ([12]; in combination with NXL-104): ≤0.06 µg/mL
MIC [13, 27]: 0.5 µg/mL
MIC ([13]; in combination with NXL-104): 0.12 µg/mL
MIC [14, 28]: > 32 µg/mL
MIC ([14]; in combination with NXL-104): >32 µg/mL
MIC [15, 30]: 32 µg/mL
MIC ([15]; in combination with NXL-104): 32.00 µg/mL
MIC ([16]; Citrobacter freundii, alone, read-out: MIC): 4 µg/mL
MIC ([16]; in combination with NXL-104): 0.50 µg/mL
MIC [17, 29]: > 32 µg/mL
MIC ([17]; in combination with NXL-104): 4 µg/mL
MIC ([18]; Klebsiella pneumoniae, 2689, Table 2, alone, read-out: MIC): 8 µg/mL (≈ 11.3 µM)
MIC ([18]; Klebsiella pneumoniae, 2689, Table 3, alone, read-out: MIC): 32 µg/mL (≈ 45.1 µM)
MIC [18, 25]: 2.00 µg/mL
MIC [18, 26]: 2 µg/mL
MIC ([19]; alone, read-out: MIC): 32 µg/mL
MIC ([19]; in combination with NXL-104): 8.00 µg/mL
MIC ([20]; Klebsiella pneumoniae, 4105, Table 2, alone, read-out: MIC): 32 µg/mL (≈ 45.1 µM)
MIC ([20]; Klebsiella pneumoniae, 4105, Table 3, alone, read-out: MIC): > 32 µg/mL
MIC [20, 25]: 2.00 µg/mL
MIC [20, 26]: 2 µg/mL
MIC [21, 28]: > 32 µg/mL
MIC ([21]; in combination with NXL-104): 32 µg/mL
MIC [22, 28]: 0.25 µg/mL
MIC ([22]; in combination with NXL-104): 0.12 µg/mL
MIC [23, 28]: 0.5 µg/mL
MIC ([23]; in combination with NXL-104): 0.25 µg/mL
SMILES: CC(C)(O/N=C(\C(=O)N[C@@H]1C(=O)N2C(C(=O)[O-])=C(C[n+]3ccc4n3CCN4Cc3ccc(C(=N)N)cc3)CS[C@H]12)c1csc(N)n1)C(=O)O [Example 2, (6R,7R)-7-{[(2Z)-2-(2-Amino-1,3-thiazol-4-yl)-2-{[(2-carboxypropan-2-yl)oxy]imino}acetyl]amino}-3-{[1-(4-carbamimidoylbenzyl)-2,3-dihydro-1H-imidazo[1,2-b]pyrazol-5-ium-5-yl]methyl}-8-oxo-5-thia-1-azabicyclo[4.2.0]oct-2-ene-2-carboxylate]
